Assay results reported in the NIST ThermoML archive (doi:10.1016/j.jct.2017.03.006).

Assay: xn = mol fraction of the nth substance listed
Details: Liquid; for mass density: Vibrating tube method; for viscosity: Concentric cylinders viscometry

Cc1ccc(C)c(C)c1 [1,2,4-trimethylbenzene] + CCCCO
Details | mass density [kg/m3] | viscosity [mPa·s]
273.15 K, 100 kPa, x2 = 0 | 891.7 | –
273.15 K, 100 kPa, x2 = 0.1005 | 886.7 | –
273.15 K, 100 kPa, x2 = 0.2261 | 880.3 | –
273.15 K, 100 kPa, x2 = 0.2999 | 876.4 | –
273.15 K, 100 kPa, x2 = 0.3966 | 870.8 | –
273.15 K, 100 kPa, x2 = 0.5289 | 862.9 | –
273.15 K, 100 kPa, x2 = 0.6367 | 855.6 | –
273.15 K, 100 kPa, x2 = 0.7249 | 849.2 | –
273.15 K, 100 kPa, x2 = 0.9131 | 833.3 | –
273.15 K, 1000 kPa, x2 = 0 | 892.3 | –
273.15 K, 1000 kPa, x2 = 0.1005 | 887.1 | –
273.15 K, 1000 kPa, x2 = 0.2261 | 880.5 | –
273.15 K, 1000 kPa, x2 = 0.2999 | 876.7 | –
273.15 K, 1000 kPa, x2 = 0.3966 | 871.1 | –
273.15 K, 1000 kPa, x2 = 0.5289 | 863.2 | –
273.15 K, 1000 kPa, x2 = 0.6367 | 855.9 | –
273.15 K, 1000 kPa, x2 = 0.7249 | 849.5 | –
273.15 K, 1000 kPa, x2 = 0.7977 | 843.7 | –
273.15 K, 1000 kPa, x2 = 0.9131 | 833.7 | –
273.15 K, 5000 kPa, x2 = 0 | 894.6 | –
273.15 K, 5000 kPa, x2 = 0.1005 | 889.5 | –
273.15 K, 5000 kPa, x2 = 0.2261 | 883 | –
273.15 K, 5000 kPa, x2 = 0.2999 | 879.2 | –
273.15 K, 5000 kPa, x2 = 0.3966 | 873.6 | –
273.15 K, 5000 kPa, x2 = 0.5289 | 865.7 | –
273.15 K, 5000 kPa, x2 = 0.6367 | 858.5 | –
273.15 K, 5000 kPa, x2 = 0.7249 | 852.1 | –
273.15 K, 5000 kPa, x2 = 0.7977 | 846.3 | –
273.15 K, 5000 kPa, x2 = 0.9131 | 836.3 | –
273.15 K, 10000 kPa, x2 = 0 | 897.4 | –
273.15 K, 10000 kPa, x2 = 0.1005 | 892.4 | –
273.15 K, 10000 kPa, x2 = 0.2261 | 885.9 | –
273.15 K, 10000 kPa, x2 = 0.2999 | 882.1 | –
273.15 K, 10000 kPa, x2 = 0.3966 | 876.6 | –
273.15 K, 10000 kPa, x2 = 0.5289 | 868.8 | –
273.15 K, 10000 kPa, x2 = 0.6367 | 861.5 | –
273.15 K, 10000 kPa, x2 = 0.7249 | 855.2 | –
273.15 K, 10000 kPa, x2 = 0.7977 | 849.4 | –
273.15 K, 10000 kPa, x2 = 0.9131 | 839.4 | –
273.15 K, 20000 kPa, x2 = 0 | 902.8 | –
273.15 K, 20000 kPa, x2 = 0.1005 | 897.9 | –
273.15 K, 20000 kPa, x2 = 0.2261 | 891.4 | –
273.15 K, 20000 kPa, x2 = 0.2999 | 887.7 | –
273.15 K, 20000 kPa, x2 = 0.3966 | 882.2 | –
273.15 K, 20000 kPa, x2 = 0.5289 | 874.4 | –
273.15 K, 20000 kPa, x2 = 0.6367 | 867.2 | –
273.15 K, 20000 kPa, x2 = 0.7249 | 860.8 | –
273.15 K, 20000 kPa, x2 = 0.7977 | 855.2 | –
273.15 K, 20000 kPa, x2 = 0.9131 | 845.3 | –
273.15 K, 30000 kPa, x2 = 0 | 908 | –
273.15 K, 30000 kPa, x2 = 0.1005 | 903.1 | –
273.15 K, 30000 kPa, x2 = 0.2261 | 896.7 | –
273.15 K, 30000 kPa, x2 = 0.2999 | 893 | –
273.15 K, 30000 kPa, x2 = 0.3966 | 887.5 | –
273.15 K, 30000 kPa, x2 = 0.5289 | 879.7 | –
273.15 K, 30000 kPa, x2 = 0.6367 | 872.6 | –
273.15 K, 30000 kPa, x2 = 0.7249 | 866.3 | –
273.15 K, 30000 kPa, x2 = 0.7977 | 860.6 | –
273.15 K, 30000 kPa, x2 = 0.9131 | 850.8 | –
273.15 K, 40000 kPa, x2 = 0 | 912.9 | –
273.15 K, 40000 kPa, x2 = 0.1005 | 908 | –
273.15 K, 40000 kPa, x2 = 0.2261 | 901.7 | –
273.15 K, 40000 kPa, x2 = 0.2999 | 897.9 | –
273.15 K, 40000 kPa, x2 = 0.3966 | 892.5 | –
273.15 K, 40000 kPa, x2 = 0.5289 | 884.8 | –
273.15 K, 40000 kPa, x2 = 0.6367 | 877.7 | –
273.15 K, 40000 kPa, x2 = 0.7249 | 871.4 | –
273.15 K, 40000 kPa, x2 = 0.7977 | 865.8 | –
273.15 K, 40000 kPa, x2 = 0.9131 | 856 | –
273.15 K, 50000 kPa, x2 = 0 | 917.5 | –
273.15 K, 50000 kPa, x2 = 0.1005 | 912.6 | –
273.15 K, 50000 kPa, x2 = 0.2261 | 906.3 | –
273.15 K, 50000 kPa, x2 = 0.2999 | 902.7 | –
273.15 K, 50000 kPa, x2 = 0.3966 | 897.3 | –
273.15 K, 50000 kPa, x2 = 0.5289 | 889.6 | –
273.15 K, 50000 kPa, x2 = 0.6367 | 882.5 | –
273.15 K, 50000 kPa, x2 = 0.7249 | 876.2 | –
273.15 K, 50000 kPa, x2 = 0.7977 | 870.6 | –
273.15 K, 50000 kPa, x2 = 0.9131 | 860.9 | –
273.15 K, 60000 kPa, x2 = 0 | 921.9 | –
273.15 K, 60000 kPa, x2 = 0.1005 | 917.1 | –
273.15 K, 60000 kPa, x2 = 0.2261 | 910.9 | –
273.15 K, 60000 kPa, x2 = 0.2999 | 907.2 | –
273.15 K, 60000 kPa, x2 = 0.3966 | 901.8 | –
273.15 K, 60000 kPa, x2 = 0.5289 | 894.1 | –
273.15 K, 60000 kPa, x2 = 0.6367 | 887 | –
273.15 K, 60000 kPa, x2 = 0.7249 | 880.8 | –
273.15 K, 60000 kPa, x2 = 0.7977 | 875.2 | –
273.15 K, 60000 kPa, x2 = 0.9131 | 865.5 | –
273.15 K, 70000 kPa, x2 = 0 | 926.2 | –
273.15 K, 70000 kPa, x2 = 0.1005 | 921.4 | –
273.15 K, 70000 kPa, x2 = 0.2261 | 915.1 | –
273.15 K, 70000 kPa, x2 = 0.2999 | 911.4 | –
273.15 K, 70000 kPa, x2 = 0.3966 | 906.1 | –
273.15 K, 70000 kPa, x2 = 0.5289 | 898.5 | –
273.15 K, 70000 kPa, x2 = 0.6367 | 891.4 | –
273.15 K, 70000 kPa, x2 = 0.7249 | 885.2 | –
273.15 K, 70000 kPa, x2 = 0.7977 | 879.7 | –
273.15 K, 70000 kPa, x2 = 0.9131 | 870.1 | –
273.15 K, 80000 kPa, x2 = 0 | 930.3 | –
273.15 K, 80000 kPa, x2 = 0.1005 | 925.5 | –
273.15 K, 80000 kPa, x2 = 0.2261 | 919.3 | –
273.15 K, 80000 kPa, x2 = 0.2999 | 915.6 | –
273.15 K, 80000 kPa, x2 = 0.3966 | 910.3 | –
273.15 K, 80000 kPa, x2 = 0.5289 | 902.7 | –
273.15 K, 80000 kPa, x2 = 0.6367 | 895.7 | –
273.15 K, 80000 kPa, x2 = 0.7249 | 889.5 | –
273.15 K, 80000 kPa, x2 = 0.7977 | 883.9 | –
273.15 K, 80000 kPa, x2 = 0.9131 | 874.3 | –
273.15 K, 90000 kPa, x2 = 0 | 934.2 | –
273.15 K, 90000 kPa, x2 = 0.1005 | 929.4 | –
273.15 K, 90000 kPa, x2 = 0.2261 | 923.2 | –
273.15 K, 90000 kPa, x2 = 0.2999 | 919.6 | –
273.15 K, 90000 kPa, x2 = 0.3966 | 914.3 | –
273.15 K, 90000 kPa, x2 = 0.5289 | 906.7 | –
273.15 K, 90000 kPa, x2 = 0.6367 | 899.7 | –
273.15 K, 90000 kPa, x2 = 0.7249 | 893.6 | –
273.15 K, 90000 kPa, x2 = 0.7977 | 888 | –
273.15 K, 90000 kPa, x2 = 0.9131 | 878.4 | –
273.15 K, 100000 kPa, x2 = 0 | 938 | –
273.15 K, 100000 kPa, x2 = 0.1005 | 933.3 | –
273.15 K, 100000 kPa, x2 = 0.2261 | 927.1 | –
273.15 K, 100000 kPa, x2 = 0.2999 | 923.4 | –
273.15 K, 100000 kPa, x2 = 0.3966 | 918.2 | –
273.15 K, 100000 kPa, x2 = 0.5289 | 910.6 | –
273.15 K, 100000 kPa, x2 = 0.6367 | 903.6 | –
273.15 K, 100000 kPa, x2 = 0.7249 | 897.5 | –
273.15 K, 100000 kPa, x2 = 0.7977 | 891.9 | –
273.15 K, 100000 kPa, x2 = 0.9131 | 882.3 | –
273.15 K, 120000 kPa, x2 = 0 | 945.2 | –
273.15 K, 120000 kPa, x2 = 0.1005 | 940.6 | –
273.15 K, 120000 kPa, x2 = 0.2261 | 934.5 | –
273.15 K, 120000 kPa, x2 = 0.2999 | 930.8 | –
273.15 K, 120000 kPa, x2 = 0.3966 | 925.6 | –
273.15 K, 120000 kPa, x2 = 0.5289 | 918 | –
273.15 K, 120000 kPa, x2 = 0.6367 | 911.1 | –
273.15 K, 120000 kPa, x2 = 0.7249 | 905 | –
273.15 K, 120000 kPa, x2 = 0.7977 | 899.4 | –
273.15 K, 120000 kPa, x2 = 0.9131 | 889.9 | –
273.15 K, 140000 kPa, x2 = 0 | 952 | –
273.15 K, 140000 kPa, x2 = 0.1005 | 947.3 | –
273.15 K, 140000 kPa, x2 = 0.2261 | 941.3 | –
273.15 K, 140000 kPa, x2 = 0.2999 | 937.7 | –
273.15 K, 140000 kPa, x2 = 0.3966 | 932.5 | –
273.15 K, 140000 kPa, x2 = 0.5289 | 924.9 | –
273.15 K, 140000 kPa, x2 = 0.6367 | 918 | –
273.15 K, 140000 kPa, x2 = 0.7249 | 911.9 | –
273.15 K, 140000 kPa, x2 = 0.7977 | 906.4 | –
273.15 K, 140000 kPa, x2 = 0.9131 | 896.8 | –
293.15 K, 100 kPa, x2 = 0 | 875.1 | 0.888
293.15 K, 100 kPa, x2 = 0.1002 | – | 0.898
293.15 K, 100 kPa, x2 = 0.1005 | 870.2 | –
293.15 K, 100 kPa, x2 = 0.2261 | 863.7 | –
293.15 K, 100 kPa, x2 = 0.2327 | – | 0.949
293.15 K, 100 kPa, x2 = 0.3 | – | 1.001
293.15 K, 100 kPa, x2 = 0.3969 | – | 1.087
293.15 K, 100 kPa, x2 = 0.637 | – | 1.483
293.15 K, 100 kPa, x2 = 0.7975 | – | 1.975
293.15 K, 100 kPa, x2 = 0.9131 | – | 2.464
